Experiment: xn = mol fraction of the nth substance listed
Details: 101 kPa

COCCO + CC[n+]1ccn(C)c1.O=S(=O)([O-])C(F)(F)F
x2 = 0
Details | speed of sound [m/s]
298.15 K | 1342.3
308.15 K | 1308.2
313.15 K | 1290.8
318.15 K | 1273.6

CC[n+]1ccn(C)c1.O=S(=O)([O-])C(F)(F)F + COCCO
speed of sound [m/s]
Details | 298.15 K | 303.15 K | 308.15 K | 313.15 K | 318.15 K
x1 = 0.0531 | 1359 | – | 1327 | 1310.8 | 1294.7
x1 = 0.1062 | 1367 | 1351.6 | 1336.4 | – | 1305.4
x1 = 0.1999 | – | 1365.9 | 1351.6 | 1337.2 | –
x1 = 0.2935 | 1392 | 1378.7 | – | 1351.8 | 1338.3
x1 = 0.3958 | 1403.5 | 1390.9 | 1378.3 | 1365.7 | –
x1 = 0.4452 | – | 1396.2 | 1383.9 | 1371.6 | 1359.3
x1 = 0.5036 | 1413.9 | 1402 | 1390 | 1378 | 1366.1
x1 = 0.5752 | 1419.9 | 1408.2 | 1396.6 | 1385 | –
x1 = 0.6452 | – | 1413.5 | 1402.1 | 1390.8 | 1379.4
x1 = 0.7142 | 1429.2 | 1417.9 | 1406.7 | 1395.5 | 1384.3
x1 = 0.8049 | – | 1422.5 | 1411.3 | – | 1389.2
x1 = 0.8751 | 1436.5 | 1425.1 | 1413.9 | 1402.8 | 1391.8
x1 = 0.9522 | – | 1427 | 1415.7 | 1404.5 | –
x1 = 1 | 1435.8 | – | 1413.5 | 1402.4 | 1391.4
